Tests used:
BK channels [1] = target: T1, BK channels (Oryctolagus cuniculus, UniProt Q9BG98); test: Single channel recordings, inside-out patch clamp, voltage ramps, isolated smooth muscle cells of the rabbit bladder; assay type: cell-based; conditions: for ΔV1/2 (mV) in 100 nm Ca^2+: 10 μM compound, inside-out patch; for effect on BK channel activity, in words (SAR discussion based on V1/2 data): inside out patches on rabbit smooth muscle cells
T1 construct: wherein the native BK channels were more sensitive to Ca^2+; from tissue
T1 sequence (Q9BG98 whole entry): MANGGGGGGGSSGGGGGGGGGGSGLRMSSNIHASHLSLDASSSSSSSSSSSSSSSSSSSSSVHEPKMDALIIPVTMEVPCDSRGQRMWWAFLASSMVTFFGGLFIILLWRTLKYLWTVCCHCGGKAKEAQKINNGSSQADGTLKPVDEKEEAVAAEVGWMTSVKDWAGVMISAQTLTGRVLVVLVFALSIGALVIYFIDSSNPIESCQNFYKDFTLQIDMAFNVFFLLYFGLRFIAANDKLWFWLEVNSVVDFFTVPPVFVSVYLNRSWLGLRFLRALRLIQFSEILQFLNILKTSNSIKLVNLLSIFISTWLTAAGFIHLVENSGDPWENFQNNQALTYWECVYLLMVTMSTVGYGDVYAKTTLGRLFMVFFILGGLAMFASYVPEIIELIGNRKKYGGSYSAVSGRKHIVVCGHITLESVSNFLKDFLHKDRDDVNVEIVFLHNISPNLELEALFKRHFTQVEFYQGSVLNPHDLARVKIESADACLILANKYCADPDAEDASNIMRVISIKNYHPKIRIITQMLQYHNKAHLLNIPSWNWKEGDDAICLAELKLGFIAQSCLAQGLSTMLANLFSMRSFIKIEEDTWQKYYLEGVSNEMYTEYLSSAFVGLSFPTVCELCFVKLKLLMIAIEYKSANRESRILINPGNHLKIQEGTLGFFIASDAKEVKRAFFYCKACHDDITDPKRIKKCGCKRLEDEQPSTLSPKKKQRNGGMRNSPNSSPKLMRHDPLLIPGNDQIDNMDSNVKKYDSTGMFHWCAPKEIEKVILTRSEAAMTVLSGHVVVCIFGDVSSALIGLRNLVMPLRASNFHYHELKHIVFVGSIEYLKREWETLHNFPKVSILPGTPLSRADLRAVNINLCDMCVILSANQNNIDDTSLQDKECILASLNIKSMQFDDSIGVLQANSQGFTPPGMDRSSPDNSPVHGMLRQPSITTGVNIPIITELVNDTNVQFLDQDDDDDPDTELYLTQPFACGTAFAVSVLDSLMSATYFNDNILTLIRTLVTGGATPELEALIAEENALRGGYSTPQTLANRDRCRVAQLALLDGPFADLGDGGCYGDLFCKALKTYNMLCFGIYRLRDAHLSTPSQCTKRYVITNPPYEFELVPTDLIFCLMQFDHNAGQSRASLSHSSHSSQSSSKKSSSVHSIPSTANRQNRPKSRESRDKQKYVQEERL
Experimental: All experiments were approved by the Dundalk Institute of Technology Animal Care and Use Committee. […] The urinary bladder and most proximal 1.5 cm of the urethra was removed and placed in Krebs solution. Strips of bladder tissue, 0.5 cm in width were dissected, cut into 1 mm^3 pieces and stored in Ca^2+-free Hanks' solution for 30 min prior to cell dispersal. Tissue pieces were incubated in dispersal medium containing (per 5 ml) of Ca^2+-free Hanks' solution: 15 mg collagenase (Sigma type 1A), 1 mg protease (Sigma type XXIV), 10 mg bovine serum albumin (Sigma) and 10 mg trypsin inhibitor (Sigma) for 10-15 min at 37° C. Tissue was then transferred to Ca^2+-free Hanks' solution and stirred for a further 10-15 min to release single smooth muscle cells. These were plated in Petri dishes containing 100 μM Ca^2+ Hanks' solution and stored at 4° C. for use within 8 h. During experiments, the dish containing the cells was continuously perfused with Hanks' solution at 36±1° C. Additionally the cell under study was continuously superfused by means of a custom built close delivery system with a pipette of tip diameter 200 μm placed approximately 300 μm from the cell. The high K^+ solution in the close delivery system could be switched to a drug-containing solution with a dead space time of less than 5 s.
For whole cell recordings pipettes were pulled from borosilicate glass capillary tubing (1.5 mm outer diameter, 1.17 mm inner diameter; Clark Medical Instruments) to a tip of diameter approximately 1-1.5 μm and resistance of 2-4 Mohms. For single channel recordings, pipettes were pulled from borosilicate glass capillary tubing (1.5 mm outer diameter, 0.8 mm inner diameter; Clark Medical Instruments) and fire polished before use. Voltage clamp commands were delivered via an Axopatch 1D or Axon 200B patch clamp amplifiers (Axon Instruments) and membrane currents were recorded by a 12 bit AD/DA converter (Axodata 1200 or Labmaster, Scientific Solutions) interfaced to an Intel computer running pCLAMP software.
All values in (mM): KCl, 140. Glucose, 10, EGTA 1 and HEPES, 10. For free Ca^2+ greater than 300 nM: All values in (mM): KCl, 140. Glucose, 10, H-EDTA 1 and HEPES, 10. The same solution composition is used in the bath as in the patch pipette for these experiments except that the pipette solution contained 100 nM Ca^2+.
In single channel experiments voltage commands were applied using pClamp ramped potentials. This allowed more efficient measurement of slope conductance and channel activation than conventional step depolarisations. Activation curves were calculated by averaging current responses to 15 potential ramps and dividing each data point of the averaged current by the single channel amplitude at that holding potential, after leakage current correction. […] This analysis provides a continuous recording of the number of open channels multiplied by the open probability (NPo) over the entire voltage range. To obtain values for the steepness of the voltage-dependent activation and half-maximal activation voltage, activation curves were fitted with Boltzman functions of the form: NPo=n/{1+exp[−K(V−V1/2)]} where N is the number of channels in the patch, n is the maximal NPo level, K^−1 is the steepness of the voltage-dependent activation (change in potential necessary to cause an e-fold increase in activation) and V1/2 is the voltage at which there is half-maximal activation. Again, all of the experiments were carried out at 36±1° C.
The patches were held at a potential of −100 mV and voltage ramps were then applied from −100 mV up to +100 mV over 2 s.
Patches were held at −100 mV and ramped through to +100 mV and each sweep was repeated 15 times. The same protocol was repeated after the patch was incubated in 1 μM Ca^2+.

BK channels [2] = target: T1, BK channels; test: Perforated patch whole cell patch clamp, outward BK current in isolated smooth muscle cells; assay type: cell-based, rabbit; conditions: 10 μM; steps from −80 mV to +50 mV; holding −60 mV
Experimental: The cell membrane was perforated using the antibiotic amphotericin B (600 μg·ml^−1).
Standard Hank's solution is used to bathe the cells in these experiments. Isolated smooth muscle cells from rabbit urethra we held at −60 mV. The test protocol involved stepping from −60 mV to −80 mV for 500 msecs, and then stepping the voltage up in +10 mV increments to +50 mV before returning to the holding potential of −60 mV.

L-type calcium channel = test: Inward L-type calcium current, perforated patch clamp with Cs+ pipette solution, isolated smooth muscle cells of the rabbit bladder; assay type: cell-based; conditions: held at −60 mV, stepped to 0 mV for 500 ms
Description: Using methods described above herein, the patch pipette solution was altered to allow for measurement of inward L-type calcium currents which although present in earlier studies are not visible due to the overwhelming size of the outward BK current. By replacing K^+ with Cs^+ ions, the outward current is now blocked and a prominent inward current carried by Calcium is present. This is the L-type calcium ion channel currents allowing calcium into the cells.
All values in (mM): CsCl, 132.96. MgCl2.6H20, 1. EGTA, 0.5 and HEPES, 10.
With reference to FIG. 5, isolated smooth muscle cells from the rabbit bladder were held at −60 mV and stepped to 0 mV for 500 ms. Pipette solutions contained Cs^+ to block outward K^+ currents.

BK channel = BK channel (Homo sapiens, UniProt Q12791); conditions: applied to the inside of the membrane; cited from earlier work
BK channel, sequence (Q12791 whole entry, species assumed): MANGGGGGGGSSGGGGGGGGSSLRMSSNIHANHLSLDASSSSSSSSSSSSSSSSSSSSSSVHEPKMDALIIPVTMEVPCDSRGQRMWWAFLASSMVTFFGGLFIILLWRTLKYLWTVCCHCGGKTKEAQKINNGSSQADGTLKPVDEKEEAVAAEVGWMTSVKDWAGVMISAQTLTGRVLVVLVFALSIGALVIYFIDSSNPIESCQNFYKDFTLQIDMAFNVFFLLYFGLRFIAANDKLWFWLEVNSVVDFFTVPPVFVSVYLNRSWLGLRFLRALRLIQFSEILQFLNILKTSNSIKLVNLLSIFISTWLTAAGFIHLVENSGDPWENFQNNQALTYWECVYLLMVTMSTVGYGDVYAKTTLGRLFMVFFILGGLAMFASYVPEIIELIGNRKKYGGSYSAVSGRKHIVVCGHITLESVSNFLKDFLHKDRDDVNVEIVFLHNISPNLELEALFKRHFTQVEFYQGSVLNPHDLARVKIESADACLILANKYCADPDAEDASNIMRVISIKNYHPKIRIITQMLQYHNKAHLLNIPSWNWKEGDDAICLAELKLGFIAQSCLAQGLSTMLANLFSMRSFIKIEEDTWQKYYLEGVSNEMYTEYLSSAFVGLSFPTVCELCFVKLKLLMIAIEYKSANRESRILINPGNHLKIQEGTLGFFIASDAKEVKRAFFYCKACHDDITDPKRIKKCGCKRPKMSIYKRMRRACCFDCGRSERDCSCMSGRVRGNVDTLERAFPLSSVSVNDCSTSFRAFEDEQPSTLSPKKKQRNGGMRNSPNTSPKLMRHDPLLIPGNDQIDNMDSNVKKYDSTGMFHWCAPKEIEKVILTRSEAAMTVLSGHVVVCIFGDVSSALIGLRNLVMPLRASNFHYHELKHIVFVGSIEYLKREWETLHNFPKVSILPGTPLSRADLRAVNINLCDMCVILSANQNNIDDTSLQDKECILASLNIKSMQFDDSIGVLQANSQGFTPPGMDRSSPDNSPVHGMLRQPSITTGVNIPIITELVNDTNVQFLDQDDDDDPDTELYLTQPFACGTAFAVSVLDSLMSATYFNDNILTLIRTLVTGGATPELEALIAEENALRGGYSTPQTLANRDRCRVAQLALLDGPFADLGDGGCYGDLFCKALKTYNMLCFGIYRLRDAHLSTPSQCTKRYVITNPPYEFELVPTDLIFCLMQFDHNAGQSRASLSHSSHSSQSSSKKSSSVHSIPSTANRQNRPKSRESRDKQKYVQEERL
BK channel, sequence (Q16558 whole entry partner, species assumed): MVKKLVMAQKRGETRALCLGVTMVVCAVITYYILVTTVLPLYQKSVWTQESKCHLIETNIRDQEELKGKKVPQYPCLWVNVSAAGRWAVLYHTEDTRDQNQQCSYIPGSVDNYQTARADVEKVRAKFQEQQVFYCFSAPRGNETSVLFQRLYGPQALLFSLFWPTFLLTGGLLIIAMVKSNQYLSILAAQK

Compound | ΔV1/2 (mV) in 100 nm Ca^2+ (BK channels [1]; Table 2) | effect on BK channel activity, in words (SAR discussion based on V1/2 data) (BK channels [1]) | further results
Nc1c(S(=O)(=O)[O-])cc(Nc2ccccc2)c2c1C(=O)c1ccccc1C2=O.[Na+] [Acid Blue 25, Sodium 1-Amino-9,10-Dioxo-4-(Phenylamino)-9,10-Dihydroanthracene-2-Sulfonate] |  |  | ΔV1/2 (mV) in 100 nm Ca^2+ (BK channels [1]; Table 1, V1/2 control vs drug): −51.0 mV; shifted the V1/2 by (BK channels [1]; inside out patches, concentration not given): −56 mV; amplitude of the outward BK current compared to control (BK channels [2]): enhances the amplitude of the BK current
Nc1c(S(=O)(=O)[O-])cc(Nc2cccc(C(F)(F)F)c2)c2c1C(=O)c1ccccc1C2=O.[Na+] [SR-5-6, sodium 1-amino-9,10-dioxo-4-(3-(trifluoromethyl)phenylamino)-9,10-dihydroanthracene-2-sulfonate] |  |  | inward L-type calcium current amplitude (L-type calcium channel): reduced in amplitude
Nc1c(S(=O)(=O)[O-])cc(Nc2ccc3ccccc3c2)c2c1C(=O)c1ccccc1C2=O.[Na+] [SR-5-72, sodium 1-amino-4-((naphthalen-2-yl)amino)-9,10-dioxo-9,10-dihydroanthracene-2-sulfonate] | −103.8 mV | dramatic increase in the activity | shifted the V1/2 by (BK channels [1]; 1 μM): 93 mV
CC(C)(C)c1cccc(Nc2cc(S(=O)(=O)[O-])c(N)c3c2C(=O)c2ccccc2C3=O)c1.[Na+] [SR-5-76, sodium 1-amino-4-((3-(tert-butyl)phenyl)amino)-9,10-dioxo-9,10-dihydroanthracene-2-sulfonate] | −94.9 mV | BK channel agonists | 
Nc1c(C(=O)O)cc(Nc2cccc(C(F)(F)F)c2)c2c1C(=O)c1ccccc1C2=O [SR-5-88, 1-amino-9,10-dioxo-4-((3-(trifluoromethyl)phenyl)amino)-9,10-dihydroanthracene-2-carboxylic acid] | −98.8 mV | activity was not altered | 
Nc1c(S(=O)(=O)[O-])cc(Nc2cccc(-c3ccccc3)c2)c2c1C(=O)c1ccccc1C2=O.[Na+] [SR-5-94, sodium 4-([1,1′-biphenyl]-3-ylamino)-1-amino-9,10-dioxo-9,10-dihydroanthracene-2-sulfonate] | −60.0 mV |  | 
CCc1ccccc1Nc1cc(S(=O)(=O)[O-])c(N)c2c1C(=O)c1ccccc1C2=O.[Na+] [SR-5-96, sodium 1-amino-4-((2-ethylphenyl)amino)-9,10-dioxo-9,10-dihydroanthracene-2-sulfonate] | −84.8 mV | BK channel agonists | 
CCc1ccc(Nc2cc(S(=O)(=O)[O-])c(N)c3c2C(=O)c2ccccc2C3=O)cc1.[Na+] [SR-5-97, sodium 1-amino-4-((4-ethylphenyl)amino)-9,10-dioxo-9,10-dihydroanthracene-2-sulfonate] | −78.5 mV | BK channel openers | 
CC(C)c1ccccc1Nc1cc(S(=O)(=O)[O-])c(N)c2c1C(=O)c1ccccc1C2=O.[Na+] [SR-5-98, sodium 1-amino-4((2-isopropylphenyl)amino)-9,10-dioxo-9,10-dihydroanthracene-2-sulfonate] | −120.0 mV | BK channel agonists | 
CC(C)c1ccc(Nc2cc(S(=O)(=O)[O-])c(N)c3c2C(=O)c2ccccc2C3=O)cc1.[Na+] [SR-5-99, sodium 1-amino-4-((4-isopropylphenyl)amino)-9,10-dioxo-9,10-dihydroanthracene-2-sulfonate] | −83.4 mV | BK channel openers | 
Basilen blue |  |  | BK channel activation, in words (BK channel): moderately potent BK channel activator
